What all share (test): Bliss excess, mean over the matrix (fraction); higher = more synergy
The subject of experiment [1] is PC-14 (Lung Adenocarcinoma). In short, it runs like this: (§1)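 Cell lines in DMEM/F12 or RPMI with 10% FBS were plated in 1536-well plates, held 24 hours at 37°C, 5% CO2, then given two-drug dose matrices for 72 hours (DMSO typically 0.2%). Viability was read by CellTiter-Glo 2.0 luminescence and scaled as inhibition from 0 (vehicle wells) to 1 (blank wells). Combination Emax is the second-highest inhibition in the matrix; Bliss excess is observed combination effect minus expected EA + EB − EA·EB, EA and EB being single-agent effects.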

Experiment [2] relates to HCC-44 (Lung Adenocarcinoma). In short, it runs like this:
as §1

Experiment [3] relates to COLO-684 (Endometrial Carcinoma). In short, it runs like this:
as §1

For experiment [4], the system named is Becker (Low Grade Glioma). In short, it runs like this: as §1
Experiment [5] has as its system KYSE-70 (Esophageal Squamous Cell Carcinoma). In short, it runs like this: as §1
The next experiment has as its system KYM-1 (Rhabdomyosarcoma). In short, it runs like this: as §1
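Note: after 72 h of two-drug dosing.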

For `CS(=O)(=O)CCNCc1ccc(-c2ccc3ncnc(Nc4ccc(OCc5cccc(F)c5)c(Cl)c4)c3c2)o1` [Lapatinib] + NC1(c2ccc(-c3nc4ccn5c(=O)[nH]nc5c4cc3-c3ccccc3)cc2)CCC1 [MK-2206] (first compound max 10 µM, 7x7, partner max 10 µM), the Bliss excess was 0.0188 in experiment [1]; 0.005 in experiment [2]; 0.0322 in experiment [3]; 0.0516 in experiment [4]; 0.0087 in experiment [5]; 0.0255 in the experiment on KYM-1 (Rhabdomyosarcoma).

The values above are taken from the supplement of paper PMC11061612.
